Assay results taken from patent publication US20220323446A1 (Amgen Inc., priority 2021, published 2022).

Assays:
CYP3A4 = CYP3A4 (Homo sapiens, UniProt P08684); assay: Phase 1 interaction study, sotorasib with multiple doses of rifampin (strong CYP3A4 inducer); type: in vivo; parameters: from tissue; host or cells: in vivo, healthy human subjects (liver or gut enzyme)
[1] = Phase 1 interaction study, sotorasib with omeprazole, fasted conditions; type: in vivo, human
[2] = Dose comparison study 960 mg QD vs 240 mg QD, pharmacokinetics; details: for AUC0-24h: GeoMean
clinical = details: human, in vivo, oral
[3] = tested on: NSCLC adenocarcinoma (stage IV); assay: Dose comparison study, tumor response (RECIST 1.1) at 240 mg once daily; type: in vivo, human
Description: The extent of disease is evaluated by contrast-enhanced MRI/CT according to RECIST 1.1, as described below. In order to reduce radiation exposure for subjects, low dose CT should be utilized whenever possible.

OATP1B1 = target: T1, OATP1B1 (Homo sapiens, UniProt Q9Y6L6); assay: Phase 1 interaction study, sotorasib with single dose of rifampin; type: in vivo
T1 construct: from tissue
T1 sequence (Q9Y6L6 1-691): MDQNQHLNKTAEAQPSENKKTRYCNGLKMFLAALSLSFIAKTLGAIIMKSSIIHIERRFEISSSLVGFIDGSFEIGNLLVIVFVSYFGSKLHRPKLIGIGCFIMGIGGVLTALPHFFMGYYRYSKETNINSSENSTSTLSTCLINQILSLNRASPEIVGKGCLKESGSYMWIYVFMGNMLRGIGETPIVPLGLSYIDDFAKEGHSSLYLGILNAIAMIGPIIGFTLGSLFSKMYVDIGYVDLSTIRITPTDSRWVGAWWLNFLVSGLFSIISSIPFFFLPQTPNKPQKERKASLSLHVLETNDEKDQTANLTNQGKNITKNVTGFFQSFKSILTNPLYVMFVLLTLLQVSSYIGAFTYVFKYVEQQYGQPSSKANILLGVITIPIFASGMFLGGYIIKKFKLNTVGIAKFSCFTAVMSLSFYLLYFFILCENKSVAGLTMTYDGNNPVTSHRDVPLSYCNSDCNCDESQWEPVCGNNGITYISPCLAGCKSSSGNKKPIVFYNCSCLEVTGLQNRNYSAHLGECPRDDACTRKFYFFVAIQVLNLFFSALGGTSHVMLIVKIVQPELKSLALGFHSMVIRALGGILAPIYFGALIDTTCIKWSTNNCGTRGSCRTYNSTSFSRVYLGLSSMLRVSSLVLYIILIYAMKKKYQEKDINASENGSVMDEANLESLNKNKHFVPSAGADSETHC

[4] = Sotorasib dose reduction and discontinuation (safety analysis set); details: for Discontinuation reason: Adverse event / Discontinuation reason: Death / Discontinuation reason: Disease progression / Subjects who discontinued sotorasib: subjects with any dose reduction;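 for all read-outs here: counts of patients in the safety analysis set, where lowering the dose was allowed upon certain adverse events such as hepatotoxicity, nausea or vomiting and diarrhea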
[5] = Phase 1 interaction study, sotorasib with famotidine or omeprazole, fed conditions; type: in vivo, human
Description: Safety and tolerability monitoring was performed throughout the study.

[6] = Common adverse events during Phase 2 Study; type: in vivo, human
[7] = tested on: phosphorylation of extracellular signal-regulated kinase (ERK); details: preclinical studies; cited from earlier work
[8] = with omeprazole vs sotorasib alone, fasted state
[9] = 427 subjects, sotorasib monotherapy, any tumor type and any dose
[10] = Any tumor types 180 mg QD fasted (n = 6)
[11] = Any tumor types 360 mg QD fasted (n = 27)
[12] = Any tumor types 480 mg BID fed (n = 26)
[13] = Any tumor types 720 mg QD fasted (n = 11)
[14] = Any tumor types 960 mg QD fasted (n = 339)
[15] = Any tumor types 960 mg QD fed (n = 18)
[16] = Total any tumor types and any dose (n = 427)
[17] = of the 56 subjects who had a dose reduction
[18] = Total any tumor types and any dose (N = 56)
[19] = famotidine 10 hours prior to and 2 hours after sotorasib

CYP3A4, sequence (P08684 whole entry): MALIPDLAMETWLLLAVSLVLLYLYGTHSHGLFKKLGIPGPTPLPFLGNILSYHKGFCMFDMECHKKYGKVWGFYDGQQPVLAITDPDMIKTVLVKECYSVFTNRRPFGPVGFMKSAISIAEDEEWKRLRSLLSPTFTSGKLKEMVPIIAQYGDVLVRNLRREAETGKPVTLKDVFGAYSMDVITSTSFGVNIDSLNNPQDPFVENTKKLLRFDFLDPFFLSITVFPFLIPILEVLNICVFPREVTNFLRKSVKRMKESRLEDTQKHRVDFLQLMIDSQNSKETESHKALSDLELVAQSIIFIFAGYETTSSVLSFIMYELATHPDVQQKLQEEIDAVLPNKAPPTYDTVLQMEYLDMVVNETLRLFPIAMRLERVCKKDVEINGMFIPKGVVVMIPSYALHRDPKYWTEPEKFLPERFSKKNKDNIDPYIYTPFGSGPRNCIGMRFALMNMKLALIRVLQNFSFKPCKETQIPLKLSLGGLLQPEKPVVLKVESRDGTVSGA

## C=CC(=O)N1CCN(c2nc(=O)n(-c3c(C)ccnc3C(C)C)c3nc(-c4c(O)cccc4F)c(F)cc23)[C@@H](C)C1 (atropisomer, axis not shown; (M)) [sotorasib, 6-fluoro-7-(2-fluoro-6-hydroxyphenyl)-(1M)-1-[4-methyl-2-(propan-2-yl)pyridin-3-yl]-4-[(2S)-2-methyl-4-(prop-2-enoyl)piperazin-1-yl]pyrido[2,3-d]pyrimidin-2(1H)-one]
CYP3A4; 960 mg sotorasib with multiple doses of rifampin 600 mg
  Geometric mean sotorasib AUOnf: 12400 ng·h/mL
CYP3A4; coadministered with 600 mg rifampin or alone, healthy subjects
  safety and tolerability: safe and well tolerated
CYP3A4; concluded from multiple doses of rifampin
  CYP3A4 substrate status: is a CYP3A4 substrate
CYP3A4; human, plasma, 960 mg
  AUC(0-inf): 25600 ng·h/mL
  Cmax: 6350 ng/mL
CYP3A4; multiple doses of rifampin
  decrease of sotorasib AUOnf: 51%
  decrease of sotorasib Cmax: 35%
[1]; 960 mg sotorasib with 40 mg omeprazole vs alone, fasted, healthy subjects
  sotorasib time to maximal plasma concentration (Lx) delayed by: 0.75 h
[1]; 960 mg sotorasib, 40 mg omeprazole, fasted
  Mean terminal half-life (ty2) of sotorasib with omeprazole compared to alone: similar
[1]; coadministered with 40 mg omeprazole or alone, healthy subjects
  safety and tolerability: safe and well tolerated
[1]; human, plasma, 960 mg
  AUC(0-inf): 29300 ng·h/mL
[1]; [8]
  decrease of sotorasib AUCinf: 42%
  decrease of sotorasib Cmax: 57%
[2]; 240 mg, Day 1, Median
  Tmax: 1.0 h
[2]; 240 mg, Day 8
  AUC0-24h: 36300 ng·h/mL
[2]; 960 mg, Day 1
  AUC0-24h: 85000 ng·h/mL
[2]; Day 1 and Day 8
  mean exposures (Cmax and AUC0-24h) following 960 mg compared to 240 mg: numerically higher
[2]; both 240 mg and 960 dosing
  Exposures on Day 8 lower than on Day 1: 30-40%
clinical; 240 mg
  Tmax: 4 h
clinical; 960 mg
  Tmax: 4 h
[3]; one patient, after cycle 3 and 5
  tumor response: stable disease (SD)
[3]; other patient, after cycle 9
  tumor response: progression disease (PD)
[3]; other patient, after cycles 3, 5, and 7
  tumor response: partial response (PR)
[3]; same patient, after cycles 7 and 9
  tumor response: partial response (PR)
OATP1B1; concluded from single dose rifampin
  OATP1B1 substrate status: not a substrate of OATP1B1
OATP1B1; single dose rifampin
  effect of single dose of rifampin on sotorasib PK: did not have a clinically meaningful effect
[4]; [9]
  subjects with a dose reduction: 13.1%
  subjects with dose reduction due to adverse events (AEs): 10.8%
[4]; [10]
  Number of subjects with any dose reduction: 0 (0.0) n (%)
  Primary reason for dose reduction: Adverse event: 0 (0.0) n (%)
[4]; [11]
  Number of subjects with any dose reduction: 3 (11.1) n (%)
  Primary reason for dose reduction: Adverse event: 3 (11.1) n (%)
[4]; [12]
  Number of subjects with any dose reduction: 3 (11.5) n (%)
  Primary reason for dose reduction: Adverse event: 2 (7.7) n (%)
[4]; [13]
  Number of subjects with any dose reduction: 2 (18.2) n (%)
  Primary reason for dose reduction: Adverse event: 1 (9.1) n (%)
[4]; [14]
  Number of subjects with any dose reduction: 36 (13.6) n (%)
  Primary reason for dose reduction: Adverse event: 38 (11.2) n (%)
[4]; [15]
  Number of subjects with any dose reduction: 2 (11.1) n (%)
  Primary reason for dose reduction: Adverse event: 2 (11.1) n (%)
[4]; [16]
  Number of subjects with any dose reduction: 56 (13.1) n (%)
  Primary reason for dose reduction: Adverse event: 46 (10.8) n (%)
[4]; [17]
  subjects who discontinued due to progression of disease: 44.6%
  subjects who discontinued treatment with sotorasib: 69.6%
  subjects whose reason to discontinue was due to AEs: 21.4%
[4]; 180 mg QD fasted (N = 0)
  Discontinuation reason: Adverse event: 0 (0.0) n (%)
  Discontinuation reason: Death: 0 (0.0) n (%)
  Discontinuation reason: Disease progression: 0 (0.0) n (%)
  Subjects who discontinued sotorasib: 0 (−) n (%)
[4]; 360 mg QD fasted (N = 3)
  Discontinuation reason: Adverse event: 0 (0.0) n (%)
  Discontinuation reason: Death: 0 (0.0) n (%)
  Discontinuation reason: Disease progression: 2 (66.7) n (%)
  Subjects who discontinued sotorasib: 2 (66.7) n (%)
[4]; 480 mg BID fed (N = 3)
  Discontinuation reason: Adverse event: 2 (66.7) n (%)
  Discontinuation reason: Death: 0 (0.0) n (%)
  Discontinuation reason: Disease progression: 0 (0.0) n (%)
  Subjects who discontinued sotorasib: 2 (66.7) n (%)
[4]; 720 mg QD fasted (N = 2)
  Discontinuation reason: Adverse event: 0 (0.0) n (%)
  Discontinuation reason: Death: 0 (0.0) n (%)
  Discontinuation reason: Disease progression: 2 (100.0) n (%)
  Subjects who discontinued sotorasib: 2 (100.0) n (%)
[4]; 960 mg QD fasted (N = 46)
  Discontinuation reason: Adverse event: 9 (19.6) n (%)
  Discontinuation reason: Death: 0 (0.0) n (%)
  Discontinuation reason: Disease progression: 21 (45.7) n (%)
  Subjects who discontinued sotorasib: 32 (69.6) n (%)
[4]; 960 mg QD fed (N = 2)
  Discontinuation reason: Adverse event: 1 (50.0) n (%)
  Discontinuation reason: Death: 0 (0.0) n (%)
  Discontinuation reason: Disease progression: 0 (0.0) n (%)
  Subjects who discontinued sotorasib: 1 (50.0 n (%)
[4]; [18]
  Discontinuation reason: Adverse event: 12 (21.4) n (%)
  Discontinuation reason: Death: 0 (0.0) n (%)
  Discontinuation reason: Disease progression: 25 (44.6) n (%)
  Subjects who discontinued sotorasib: 39 (69.6) n (%)
[5]; 960 mg with 40 mg famotidine single dose or 40 mg omeprazole multiple daily dosing, healthy subjects
  safety and tolerability: safe and well tolerated
[5]; [19]
  decrease of sotorasib AUC: 38%
  decrease of sotorasib Cmax: 35%
[5]; repeat doses of omeprazole
  decrease of sotorasib AUC: 57%
  decrease of sotorasib Cmax: 65%
[6]
  Abdominal pain, ALL GRADES: 15%
  Abdominal pain, GRADE 3 TO 4: 1.0%
  Arthalgia, ALL GRADES: 12%
  Arthalgia, GRADE 3 TO 4: 1.0%
  Constipation, ALL GRADES: 16%
  Constipation, GRADE 3 TO 4: 0.5%
  Cough, ALL GRADES: 20%
  Cough, GRADE 3 TO 4: 1.5%
  Decreased appetite, ALL GRADES: 13%
  Decreased appetite, GRADE 3 TO 4: 1.0%
  Diarrhea, ALL GRADES: 42%
  Diarrhea, GRADE 3 TO 4: 5%
  Dyspnea, ALL GRADES: 16%
  Dyspnea, GRADE 3 TO 4: 2.9%
  Fatigue, ALL GRADES: 25%
  Fatigue, GRADE 3 TO 4: 2.0%
  Headache, ALL GRADES: 10%
  Headache, GRADE 3 TO 4: 0%
  Hepatotoxicity, ALL GRADES: 25%
  Hepatotoxicity, GRADE 3 TO 4: 12%
  Musculoskeletal pain, ALL GRADES: 35%
  Musculoskeletal pain, GRADE 3 TO 4: 2.0%
  Nausea, ALL GRADES: 26%
  Nausea, GRADE 3 TO 4: 1.0%
  Pneumonia, ALL GRADES: 12%
  Pneumonia, GRADE 3 TO 4: 7%
  Rash, ALL GRADES: 12%
  Rash, GRADE 3 TO 4: 0%
  Vomiting, ALL GRADES: 17%
  Vomiting, GRADE 3 TO 4: 1.5%
[7]
  phosphorylation of ERK: inhibited nearly all detectable phosphorylation
